Test [1] deals with Methicillin Resistant Staphylococcus aureus strain USA 200. Nature of the test: Minimum inhibitory concentration (MIC), CLSI broth micro-dilution, S. aureus. Type of test: cell-based. Conditions: Staphylococcus aureus, MRSA / USA200; Table 6; MRSA USA 200; cation adjusted Mueller Hinton Broth + 0.002% Tween-80; 35° C., 22 hours. Summed up:
(§1)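 Antibacterial potency is measured as MIC by the CLSI broth dilution method. Bacteria at OD600 0.0005 in Tween-80-supplemented cation-adjusted Mueller Hinton broth face ten twofold compound dilutions for 22 h at 35° C.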
On the technique in general: Broth dilution looks for growth in wells or tubes with falling amounts of substance.

Test [2] concerns Escherichia coli ATCC 25922. Nature of the test: Minimum inhibitory concentration (MIC), CLSI broth micro-dilution, E. coli. Type of test: cell-based. Conditions: Escherichia coli, ATCC25922, 22 h, Table 6, cation adjusted Mueller Hinton Broth + 0.002% Tween-80, 35° C. Summed up: as §1

Data on 13 compounds can be found in patent publication US20260274892A1, “MACROCYCLIC BROAD SPECTRUM ANTIBIOTICS” (RQx Pharmaceuticals, Inc., priority 2017, published 2026).

In general, MIC refers to the smallest concentration in the dilution series that meets the test's criterion for growth inhibition. With `Cc1nc(-c2ccc(C=C3CCCC3)cc2)nc(C)c1C(=O)N[C@@H](CCN)C(=O)N(C)[C@@H]1C(=O)N[C@@H](C)C(=O)N[C@H](C(=O)NCC#N)Cc2ccc(OCCN)c(c2)-c2cc1ccc2OCCN` (racemic) [Compound 274, rac-(8S,11S,14S)-3,18-bis(2-aminoethoxy)-N-(cyanomethyl)-11-methyl-14-[methyl-[rac-(2S)-4-amino-2-[[2-[4-(cyclopentylidenemethyl)phenyl]-4,6-dimethyl-pyrimidine-5-carbonyl]amino]butanoyl]amino]-10,13-dioxo-9,12-diazatricyclo[13.3.1.12,6]icosa-1(18),2(20),3,5,15(19),16-hexaene-8-carboxamide], the minimum inhibitory concentration (MIC) was 0.023 µM in test [1] and 0.063 µM in test [2].
The matching figures for `Cc1nc(-c2ccc(CC3CCCC3)cc2)nc(C)c1C(=O)N[C@@H](CCN)C(=O)N(C)[C@@H]1C(=O)N[C@@H](C)C(=O)N[C@H](C(=O)NCC#N)Cc2ccc(OCCN)c(c2)-c2cc1ccc2OCCN` (racemic) [Compound 275, rac-(8S,11S,14S)-3,18-bis(2-aminoethoxy)-N-(cyanomethyl)-11-methyl-14-[methyl-[rac-(2S)-4-amino-2-[[2-[4-(cyclopentylmethyl)phenyl]-4,6-dimethyl-pyrimidine-5-carbonyl]amino]butanoyl]amino]-10,13-dioxo-9,12-diazatricyclo[13.3.1.12,6]icosa-1(18),2(20),3,5,15(19),16-hexaene-8-carboxamide]: 0.012 µM and 0.094 µM.
For `CCC(=Cc1ccc(-c2nc(C)c(C(=O)N[C@@H](CCN)C(=O)N(C)[C@@H]3C(=O)N[C@@H](C)C(=O)N[C@H](C(=O)NCC#N)Cc4ccc(OCCN)c(c4)-c4cc3ccc4OCCN)c(C)n2)cc1)CC` (racemic) [Compound 276, rac-(8S,11S,14S)-3,18-bis(2-aminoethoxy)-N-(cyanomethyl)-11-methyl-14-[methyl-[rac-(2S)-4-amino-2-[[2-[4-(2-ethylbut-1-enyl)phenyl]-4,6-dimethyl-pyrimidine-5-carbonyl]amino]butanoyl]amino]-10,13-dioxo-9,12-diazatricyclo[13.3.1.12,6]icosa-1(18),2(20),3,5,15(19),16-hexaene-8-carboxamide] the same measures were 0.016 µM and 0.063 µM.
For `CCC(CC)Cc1ccc(-c2nc(C)c(C(=O)N[C@@H](CCN)C(=O)N(C)[C@@H]3C(=O)N[C@@H](C)C(=O)N[C@H](C(=O)NCC#N)Cc4ccc(OCCN)c(c4)-c4cc3ccc4OCCN)c(C)n2)cc1` (racemic) [Compound 277, rac-(8S,11S,14S)-3,18-bis(2-aminoethoxy)-N-(cyanomethyl)-11-methyl-14-[methyl-[rac-(2S)-4-amino-2-[[2-[4-(2-ethylbutyl)phenyl]-4,6-dimethyl-pyrimidine-5-carbonyl]amino]butanoyl]amino]-10,13-dioxo-9,12-diazatricyclo[13.3.1.12,6]icosa-1(18),2(20),3,5,15(19),16-hexaene-8-carboxamide] the same measures were 0.016 µM and 0.13 µM.
Regarding `CCC/C=C/c1ccc(-c2nc(C)c(C(=O)N[C@@H](CCN)C(=O)N(C)[C@@H]3C(=O)N[C@@H](C)C(=O)N[C@H](C(=O)NCC#N)Cc4ccc(OCCN)c(c4)-c4cc3ccc4OCCN)c(C)n2)cc1` (racemic) [Compound 278, rac-(8S,11S,14S)-3,18-bis(2-aminoethoxy)-N-(cyanomethyl)-11-methyl-14-[methyl-[rac-(2S)-4-amino-2-[[4,6-dimethyl-2-[4-[rac-(E)-pent-1-enyl]phenyl]pyrimidine-5-carbonyl]amino]butanoyl]amino]-10,13-dioxo-9,12-diazatricyclo[13.3.1.12,6]icosa-1(18),2(20),3,5,15(19),16-hexaene-8-carboxamide], the MIC in test [1] came to 0.0078 µM; in test [2], 0.094 µM.
Regarding `Cc1nc(-c2ccc(C3(C)CC3)cc2)nc(C)c1C(=O)N[C@@H](CCN)C(=O)N(C)[C@@H]1C(=O)N[C@@H](C)C(=O)N[C@H](C(=O)NCC#N)Cc2ccc(OCCN)c(c2)-c2cc1ccc2OCCN` (racemic) [Compound 280, rac-(8S,11S,14S)-3,18-bis(2-aminoethoxy)-N-(cyanomethyl)-11-methyl-14-[methyl-[rac-(2S)-4-amino-2-[[4,6-dimethyl-2-[4-(1-methylcyclopropyl)phenyl]pyrimidine-5-carbonyl]amino]butanoyl]amino]-10,13-dioxo-9,12-diazatricyclo[13.3.1.12,6]icosa-1(18),2(20),3,5,15(19),16-hexaene-8-carboxamide], the minimal inhibitory concentration (MIC) in test [1] was determined as 0.031 µM; in test [2], 0.13 µM.
`CCC1(c2ccc(-c3nc(C)c(C(=O)N[C@@H](CCN)C(=O)N(C)[C@@H]4C(=O)N[C@@H](C)C(=O)N[C@H](C(=O)NCC#N)Cc5ccc(OCCN)c(c5)-c5cc4ccc5OCCN)c(C)n3)cc2)CC1` (racemic) [Compound 281, rac-(8S,11S,14S)-3,18-bis(2-aminoethoxy)-N-(cyanomethyl)-11-methyl-14-[methyl-[rac-(2S)-4-amino-2-[[2-[4-(1-ethylcyclopropyl)phenyl]-4,6-dimethyl-pyrimidine-5-carbonyl]amino]butanoyl]amino]-10,13-dioxo-9,12-diazatricyclo[13.3.1.12,6]icosa-1(18),2(20),3,5,15(19),16-hexaene-8-carboxamide]: the results for the MIC in test [1] and in test [2] were 0.016 µM and 0.065 µM, respectively.
For `CCCC1(c2ccc(-c3nc(C)c(C(=O)N[C@@H](CCN)C(=O)N(C)[C@@H]4C(=O)N[C@@H](C)C(=O)N[C@H](C(=O)NCC#N)Cc5ccc(OCCN)c(c5)-c5cc4ccc5OCCN)c(C)n3)cc2)CC1` (racemic) [Compound 282, rac-(8S,11S,14S)-3,18-bis(2-aminoethoxy)-N-(cyanomethyl)-11-methyl-14-[methyl-[rac-(2S)-4-amino-2-[[4,6-dimethyl-2-[4-(1-propylcyclopropyl)phenyl]pyrimidine-5-carbonyl]amino]butanoyl]amino]-10,13-dioxo-9,12-diazatricyclo[13.3.1.12,6]icosa-1(18),2(20),3,5,15(19),16-hexaene-8-carboxamide] the same measures were 0.016 µM and 0.094 µM.
The matching figures for `CCCCC1(c2ccc(-c3nc(C)c(C(=O)N[C@@H](CCN)C(=O)N(C)[C@@H]4C(=O)N[C@@H](C)C(=O)N[C@H](C(=O)NCC#N)Cc5ccc(OCCN)c(c5)-c5cc4ccc5OCCN)c(C)n3)cc2)CC1` (racemic) [Compound 283, rac-(8S,11S,14S)-3,18-bis(2-aminoethoxy)-N-(cyanomethyl)-11-methyl-14-[methyl-[rac-(2S)-4-amino-2-[[2-[4-(1-butylcyclopropyl)phenyl]-4,6-dimethyl-pyrimidine-5-carbonyl]amino]butanoyl]amino]-10,13-dioxo-9,12-diazatricyclo[13.3.1.12,6]icosa-1(18),2(20),3,5,15(19),16-hexaene-8-carboxamide]: 0.012 µM and 0.094 µM.
Consider `Cc1nc(-c2ccc3c(c2)CCC32CC2)nc(C)c1C(=O)N[C@@H](CCN)C(=O)N(C)[C@@H]1C(=O)N[C@@H](C)C(=O)N[C@H](C(=O)NCC#N)Cc2ccc(OCCN)c(c2)-c2cc1ccc2OCCN` (racemic) [Compound 284, rac-(8S,11S,14S)-3,18-bis(2-aminoethoxy)-N-(cyanomethyl)-11-methyl-14-[methyl-[rac-(2S)-4-amino-2-[(4,6-dimethyl-2-spiro[cyclopropane-1,1′-indane]-5′-yl-pyrimidine-5-carbonyl)amino]butanoyl]amino]-10,13-dioxo-9,12-diazatricyclo[13.3.1.12,6]icosa-1(18),2(20),3,5,15(19),16-hexaene-8-carboxamide], for which the MIC in test [1] came to 0.016 µM; in test [2], 0.13 µM.
For `Cc1nc(-c2ccc3c(c2)OCCC32CC2)nc(C)c1C(=O)N[C@@H](CCN)C(=O)N(C)[C@@H]1C(=O)N[C@@H](C)C(=O)N[C@H](C(=O)NCC#N)Cc2ccc(OCCN)c(c2)-c2cc1ccc2OCCN` (racemic) [Compound 285, rac-(8S,11S,14S)-3,18-bis(2-aminoethoxy)-N-(cyanomethyl)-11-methyl-14-[methyl-[rac-(2S)-4-amino-2-[(4,6-dimethyl-2-spiro[chromane-4,1′-cyclopropane]-7-yl-pyrimidine-5-carbonyl)amino]butanoyl]amino]-10,13-dioxo-9,12-diazatricyclo[13.3.1.12,6]icosa-1(18),2(20),3,5,15(19),16-hexaene-8-carboxamide] the same measures were 0.047 µM and 0.19 µM.
As to `Cc1nc(Cc2ccc(C(C)(C)C)cc2)nc(C)c1C(=O)N[C@@H](CCN)C(=O)N(C)[C@@H]1C(=O)N[C@@H](C)C(=O)N[C@H](C(=O)NCC#N)Cc2ccc(OCCN)c(c2)-c2cc1ccc2OCCN` (racemic) [Compound 287, rac-(8S,11S,14S)-3,18-bis(2-aminoethoxy)-N-(cyanomethyl)-11-methyl-14-[methyl-[rac-(2S)-4-amino-2-[[2-[(4-tert-butylphenyl)methyl]-4,6-dimethyl-pyrimidine-5-carbonyl]amino]butanoyl]amino]-10,13-dioxo-9,12-diazatricyclo[13.3.1.12,6]icosa-1(18),2(20),3,5,15(19),16-hexaene-8-carboxamide], the minimum inhibitory concentration (MIC) was 0.065 µM in test [1] and 1 µM in test [2].
For `Cc1nc(C(C)(C)c2ccc(C(C)(C)C)cc2)nc(C)c1C(=O)N[C@@H](CCN)C(=O)N(C)[C@@H]1C(=O)N[C@@H](C)C(=O)N[C@H](C(=O)NCC#N)Cc2ccc(OCCN)c(c2)-c2cc1ccc2OCCN` (racemic) [Compound 288, rac-(8S,11S,14S)-3,18-bis(2-aminoethoxy)-N-(cyanomethyl)-11-methyl-14-[methyl-[rac-(2S)-4-amino-2-[[2-[1-(4-tert-butylphenyl)-1-methyl-ethyl]-4,6-dimethyl-pyrimidine-5-carbonyl]amino]butanoyl]amino]-10,13-dioxo-9,12-diazatricyclo[13.3.1.12,6]icosa-1(18),2(20),3,5,15(19),16-hexaene-8-carboxamide] the same measures were 0.023 µM and 1.5 µM.
